Data published in PubChem BioAssay AID248 (DTP/NCI, 2004).
“And” between values parts separate entries of the source, which are not always exact repeats. Equal entries are not always repeated. Toxic doses and inconclusive results are not listed. No stated cut-off is given here; in the data, active means T/C of 150% or more; inactive means T/C below 125%.

Tested on: L1210 leukemia ip in BDF1 mice, survival T/C
Assay: NCI In Vivo Anticancer Drug Screen. Data for tumor model L1210 Leukemia (intraperitoneal) in B6D2F1 (BDF1) mice
Conditions: endpoint: mean survival time, higher = longer survival
In short: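 Read-out is survival time, reported as the treated-group measurement over the vehicle-control measurement.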

[1] = dose: 100.0 mg/kg/injection, schedule: Q04DX002 (ip), vehicle: saline with Tween-80
[2] = dose: 200.0 mg/kg/injection, schedule: Q04DX002 (ip), vehicle: saline with Tween-80
[3] = dose: 400.0 mg/kg/injection, schedule: Q04DX002 (ip), vehicle: saline with Tween-80
[4] = dose: 50.0 mg/kg/injection, schedule: Q01DX009 (ip), vehicle: Klucel (hydroxypropylcellulose) (HPC)
[5] = dose: 100.0 mg/kg/injection, schedule: Q01DX009 (ip), vehicle: Klucel (hydroxypropylcellulose) (HPC)
[6] = dose: 200.0 mg/kg/injection, schedule: Q01DX009 (ip), vehicle: Klucel (hydroxypropylcellulose) (HPC)
[7] = dose: 100.0 mg/kg/injection, schedule: Q04DX003 (ip), vehicle: saline
[8] = dose: 200.0 mg/kg/injection, schedule: Q04DX003 (ip), vehicle: saline
[9] = dose: 400.0 mg/kg/injection, schedule: Q04DX003 (ip), vehicle: saline
[10] = dose: 400.0 mg/kg/injection, schedule: Q01DX009 (ip), vehicle: Klucel (hydroxypropylcellulose) (HPC)
[11] = dose: 100.0 mg/kg/injection, schedule: Q01DX001 (ip), vehicle: carboxymethylcellulose (CMC)
[12] = dose: 200.0 mg/kg/injection, schedule: Q01DX001 (ip), vehicle: carboxymethylcellulose (CMC)
[13] = dose: 400.0 mg/kg/injection, schedule: Q01DX001 (ip), vehicle: carboxymethylcellulose (CMC)

Measured: T/C

BrCC(CCCc1ccccc1)CCc1ccccc1 (stereo unspecified)
inactive: [1] 93 % of control | [2] 90 % of control | [3] 101 % of control

CC(=O)C12CC3CC1C2C3
inactive: dose: 75.0 mg/kg/injection, schedule: Q04DX003 (ip), vehicle: saline 106 % of control | dose: 150.0 mg/kg/injection, schedule: Q04DX003 (ip), vehicle: saline 102 % of control | dose: 300.0 mg/kg/injection, schedule: Q04DX003 (ip), vehicle: saline 101 % of control

OC/C(=C/c1ccccc1)c1ccccc1
inactive: [4] 98 % of control | dose: 75.0 mg/kg/injection, schedule: Q04DX003 (ip), vehicle: Klucel (hydroxypropylcellulose) (HPC) 100 % of control | [5] 91 % of control | dose: 150.0 mg/kg/injection, schedule: Q04DX003 (ip), vehicle: Klucel (hydroxypropylcellulose) (HPC) 98 % of control | [6] 93 % of control | dose: 300.0 mg/kg/injection, schedule: Q04DX003 (ip), vehicle: Klucel (hydroxypropylcellulose) (HPC) 96 % of control

C1=C(c2ccccc2)N(C2CCCCC2)C(c2ccccc2)=CN1Cc1ccccc1
inactive: dose: 100.0 mg/kg/injection, schedule: Q04DX002 (ip), vehicle: Klucel (hydroxypropylcellulose) (HPC) 92 % of control | dose: 200.0 mg/kg/injection, schedule: Q04DX002 (ip), vehicle: Klucel (hydroxypropylcellulose) (HPC) 92 % of control

O=C(O)C1CCC2CCCCC2[N-]1.O=C(O)C1CCC2CCCCC2[N-]1.[Cu+2] (stereo unspecified)
inactive: dose: 6.25 mg/kg/injection, schedule: Q01DX009 (ip), vehicle: saline 97 % of control | dose: 6.25 mg/kg/injection, schedule: Q04DX003 (ip), vehicle: saline 105 % of control | dose: 12.5 mg/kg/injection, schedule: Q01DX009 (ip), vehicle: saline 90 % of control | dose: 12.5 mg/kg/injection, schedule: Q04DX003 (ip), vehicle: saline 100 % of control | dose: 25.0 mg/kg/injection, schedule: Q01DX009 (ip), vehicle: saline 97 % of control | dose: 25.0 mg/kg/injection, schedule: Q04DX003 (ip), vehicle: saline 94 % of control

CCOC(=O)NC(=O)C1C2CC3OC(=O)C1C3C2 (stereo unspecified)
inactive: [7] 102 % of control | [8] 102 % of control | [9] 98 % of control

O=[N+]([O-])c1ccc(Cl)c(O)c1
inactive: dose: 25.0 mg/kg/injection, schedule: Q01DX009 (ip), vehicle: carboxymethylcellulose (CMC) 108 % of control | dose: 50.0 mg/kg/injection, schedule: Q01DX009 (ip), vehicle: carboxymethylcellulose (CMC) 106 % of control | dose: 100.0 mg/kg/injection, schedule: Q01DX009 (ip), vehicle: carboxymethylcellulose (CMC) 97 % of control

Cc1cc(OC(=O)Nc2cccc(C(F)(F)F)c2)c(C)cc1Cl
inactive: [5] 106 % of control | [6] 118 % of control | [10] 102 % of control

O=C(Nc1ccc(N=Nc2ccccc2)cc1)C1CC1
inactive: [5] 101 % of control | [6] 100 % of control | [10] 94 % of control

COC1COC(OC)C(OS(C)(=O)=O)C1OC (stereo unspecified)
inactive: [11] 106 % of control | [12] 98 % of control | [13] 101 % of control

CCN(CC)C1CCC(NC(C)=O)CC1 (stereo unspecified)
inactive: dose: 100.0 mg/kg/injection, schedule: Q01DX009 (ip), vehicle: saline 108 % of control | [7] 105 % of control and 97 % of control | dose: 200.0 mg/kg/injection, schedule: Q01DX009 (ip), vehicle: saline 107 % of control | [8] 96 % of control and 99 % of control | dose: 400.0 mg/kg/injection, schedule: Q01DX009 (ip), vehicle: saline 86 % of control | [9] 101 % of control

CC(=O)[O][Hg][c]1c(N)c(Cl)cc(C)c1F
inactive: dose: 10.0 mg/kg/injection, schedule: Q01DX001 (ip), vehicle: Klucel (hydroxypropylcellulose) (HPC) 101 % of control | dose: 20.0 mg/kg/injection, schedule: Q01DX001 (ip), vehicle: Klucel (hydroxypropylcellulose) (HPC) 86 % of control

CCCCCCCCCCCCCCCCCCN1CCSCC1
inactive: dose: 100.0 mg/kg/injection, schedule: Q01DX009 (ip), vehicle: saline with Tween-80 96 % of control and 108 % of control | [1] 93 % of control and 103 % of control | dose: 100.0 mg/kg/injection, schedule: Q04DX003 (ip), vehicle: saline with Tween-80 104 % of control | dose: 200.0 mg/kg/injection, schedule: Q01DX009 (ip), vehicle: saline with Tween-80 100 % of control and 103 % of control | [2] 94 % of control and 91 % of control | dose: 200.0 mg/kg/injection, schedule: Q04DX003 (ip), vehicle: saline with Tween-80 104 % of control | dose: 400.0 mg/kg/injection, schedule: Q01DX009 (ip), vehicle: saline with Tween-80 103 % of control and 110 % of control | [3] 98 % of control | dose: 400.0 mg/kg/injection, schedule: Q04DX003 (ip), vehicle: saline with Tween-80 106 % of control

Cc1c([N+](=O)[O-])cc(C(=O)Cl)cc1[N+](=O)[O-]
inactive: dose: 100.0 mg/kg/injection, schedule: Q04DX003 (ip), vehicle: other 106 % of control | dose: 200.0 mg/kg/injection, schedule: Q04DX003 (ip), vehicle: other 109 % of control

Cc1ccc(C)c(NS(=O)(=O)c2ccc(Cl)c([N+](=O)[O-])c2)c1
inactive: [5] 110 % of control | [6] 105 % of control | [10] 107 % of control

CN1CCCC2C3=CC=C4CC(O)CCC4(C)C3CCC21C (stereo unspecified)
inactive: dose: 75.0 mg/kg/injection, schedule: Q01DX001 (ip), vehicle: carboxymethylcellulose (CMC) 98 % of control | dose: 150.0 mg/kg/injection, schedule: Q01DX001 (ip), vehicle: carboxymethylcellulose (CMC) 101 % of control

NC(=S)N/N=C/c1cc2c(cc1Br)OCO2
inactive: dose: 50.0 mg/kg/injection, schedule: Q01DX001 (ip), vehicle: alcohol 93 % of control | dose: 100.0 mg/kg/injection, schedule: Q01DX001 (ip), vehicle: alcohol 122 % of control | dose: 200.0 mg/kg/injection, schedule: Q01DX001 (ip), vehicle: alcohol 112 % of control | dose: 400.0 mg/kg/injection, schedule: Q01DX001 (ip), vehicle: alcohol 104 % of control

O=[N+]([O-])c1ccc(O)c(/C=N/Nc2nnc(N/N=C/c3cc([N+](=O)[O-])ccc3O)c3ccccc23)c1
inactive: dose: 50.0 mg/kg/injection, schedule: Q01DX001 (ip), vehicle: carboxymethylcellulose (CMC) 95 % of control | [11] 93 % of control | [12] 95 % of control | [13] 93 % of control

O=C(Nc1cccc(C2=NCCN2)c1)c1ccc2ccc(C(=O)Nc3cccc(C4=NCCN4)c3)cc2c1
inactive: dose: 15.0 mg/kg/injection, schedule: Q01DX Z (ip), vehicle: carboxymethylcellulose (CMC) 111 % of control | dose: 30.0 mg/kg/injection, schedule: Q01DX Z (ip), vehicle: carboxymethylcellulose (CMC) 102 % of control | dose: 60.0 mg/kg/injection, schedule: Q01DX Z (ip), vehicle: carboxymethylcellulose (CMC) 106 % of control | dose: 120.0 mg/kg/injection, schedule: Q01DX Z (ip), vehicle: carboxymethylcellulose (CMC) 113 % of control | dose: 125.0 mg/kg/injection, schedule: Q01DX Z (ip), vehicle: water 118 % of control

CN=C1N[N+]2=CCCCC2S1 (stereo unspecified)
inactive: dose: 25.0 mg/kg/injection, schedule: Q04DX002 (ip), vehicle: saline 86 % of control | dose: 40.0 mg/kg/injection, schedule: Q01DX009 (ip), vehicle: saline 95 % of control | dose: 50.0 mg/kg/injection, schedule: Q04DX002 (ip), vehicle: saline 111 % of control | dose: 60.0 mg/kg/injection, schedule: Q01DX009 (ip), vehicle: saline 104 % of control | dose: 80.0 mg/kg/injection, schedule: Q01DX009 (ip), vehicle: saline 107 % of control | dose: 100.0 mg/kg/injection, schedule: Q04DX002 (ip), vehicle: saline 99 % of control

CC(=O)OCC1OC([S][Sb]([CH3])[CH3])C(OC(C)=O)C(OC(C)=O)C1OC(C)=O (stereo unspecified)
inactive: dose: 12.5 mg/kg/injection, schedule: Q01DX009 (ip), vehicle: Klucel (hydroxypropylcellulose) (HPC) 96 % of control | dose: 25.0 mg/kg/injection, schedule: Q01DX009 (ip), vehicle: Klucel (hydroxypropylcellulose) (HPC) 102 % of control | [4] 93 % of control
